In patent US10626087B2, “Indoline and tetrahydroquinoline sulfonyl inhibitors of dimetalloenzymes and use of the same” (priority 2015, dated 2020):
Where two headings read alike, the source gives them in different places.

Biological target: NDM-1 (Klebsiella pneumoniae, UniProt C7C422)
Assay: Inhibition of NDM-1 assay (CHROMACEF hydrolysis, absorbance at 442 nm)
Type: biochemical
Details: for Activity w/100 uM [I]: enzyme activity with 100 uM inhibitor; for Activity w/200 uM [I]: enzyme activity with 200 uM inhibitor
Description: The ability of the compounds described herein to inhibit NDM-1 was determined in the following way.
A Substrate Working Solution was prepared from CRHROMACEF (6 μM) and Tween-20 (0.02% v/v) in water. An Enzyme Working Solution was prepared with NDM-1 (0.5 μg/mL), Hepes (0.1 M), pH 7 and Tween-20 (0.02% v/v). An Inhibitor Working Solution was prepared from 50 mM of the inhibitor in DMSO. The final assay conditions were 1 mL, Hepes (50 mM), pH 7, Tween-20 (0.02% v/v), CHROMACEF (3 uM), Δ35 NDM-1 (0.25 μg/mL). Extra zinc was omitted from these assays because extra ZnSO4 interferes with the metal binding groups in inhibitors.
[…] Supplemental DMSO was added to reach a final volume of 4 μL. NDM-1 Working Solution ([…]) was added to the cuvette and the inhibitor and enzyme were allowed to incubate for about 20 minutes. The reaction was initiated by added 0.5 mL Substrate Working Solution. The solution was mixed quickly, but gently to avoid bubble formation. […] to start the reaction. The reaction was mixed fast, but gently. The change in absorbance ΔΔAbs442nm/min was measured for each inhibitor from the linear slope from each inhibitor concentration.

[1] = *estimated or actual from a single point, target not given, values match the NDM-1 IC50 column, read-out: IC50 μM*
[2] = fitted IC50 with error, read-out: NDM-1 IC50

Chain of NDM-1 (C7C422 36-270 limits assumed, looked up): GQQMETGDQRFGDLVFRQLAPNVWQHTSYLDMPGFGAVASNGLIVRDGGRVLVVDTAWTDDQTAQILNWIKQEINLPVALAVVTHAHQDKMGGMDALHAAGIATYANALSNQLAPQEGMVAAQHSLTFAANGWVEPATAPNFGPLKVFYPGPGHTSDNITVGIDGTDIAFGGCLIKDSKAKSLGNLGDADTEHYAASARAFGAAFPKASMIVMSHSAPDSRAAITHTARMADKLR

| IC50 [1] [µM] | inhibition at 5 µM [%] | inhibition at 50 µM (at 50 μM) [%] | SMILES | also measured |
| --- | --- | --- | --- | --- |
| 2.6 | 75.4 |  | CC(=O)N1CCc2cc(Br)c(S(=O)(=O)/C=C(\N)CC(O)c3ccccc3)cc21 (stereo not drawn) | inhibition at 25 µM: 98.5%; IC50 [2]: 2.62 µM |
| 3 | 58.4 | 96.9 | CC(=O)N1CCc2cc(Cl)c(S(=O)(=O)/C=C(\N)CC(O)c3ccccc3)cc21 (stereo not drawn) |  |
| 110 |  |  | CC(=O)N1CCc2cc(Br)c(S(=O)(=O)/N=C(\N)Cc3ccccc3)cc21 [drawing 109] | inhibition at 100 µM: 55.5%; inhibition at 200 µM: 73.8%; IC50 [2]: 110 µM |
| 14 |  | 97 | CC(=O)N1CCc2cc(Br)c(S(=O)(=O)/N=C(\N)Cc3ccccn3)cc21 | inhibition at 10 µM: 42.9% |
| 100 | 15.5 | 31.9 | CC(=O)N1CCc2cc(Cl)c(S(=O)(=O)NC(=O)CC(O)c3ccccc3)cc21 (stereo not drawn) |  |
| 9 |  | 90.3 | CC(=O)N1CCc2cc(Br)c(S(=O)(=O)/N=C(\N)CCO)cc21 | inhibition at 10 µM: 54% |
| 100 | 8.1 | 28.8 | CC(=O)N1CCc2cc(Br)c(S(=O)(=O)NC(=O)CC(O)c3ccccc3)cc21 (stereo not drawn) |  |
| 2 | 77.8 |  | COC(=O)C/C(N)=N/S(=O)(=O)c1cc2c(cc1Br)CCN2C(C)=O |  |
|  |  | 12.8 | CC(=O)N1CCc2cc(F)c(S(=O)(=O)NC(=O)CC(O)c3ccccc3)cc21 (stereo not drawn) | NDM-1 % Inhibition (at 50 μM): 13.7% |
| 2.9 | 73.8 |  | CC(=O)N1CCc2cc(Br)c(S(=O)(=O)n3cc(C(C)O)nn3)cc21 (stereo not drawn) | inhibition at 25 µM: 95.1%; IC50 [2]: 2.91 µM |
| 55 |  | 42 | CC(=O)N1CCc2cc(Br)c(S(=O)(=O)/N=C(\N)CC3(O)CCCC3)cc21 | inhibition at 200 µM: 64.6% |
| 22 |  |  | CC(=O)N1CCc2cc(Br)c(S(=O)(=O)/N=C(\N)CC(C)(C)O)cc21 [drawing 104] | Ki: 6 µM; inhibition at 100 µM: 74%; inhibition at 200 µM: 93.6%; IC50 [2]: 22 µM |

Second part, the compound before the results:

| SMILES | IC50 [1] [µM] | inhibition at 5 µM [%] | inhibition at 50 µM (at 50 μM) [%] | also measured |
| --- | --- | --- | --- | --- |
| CC(=O)NS(=O)(=O)c1ccc2c(c1)N(C(C)=O)CC2 | 300 |  | 10 | inhibition at 200 µM: 34% |
| CC(=O)N1CCc2cc(Br)c(S(=O)(=O)n3cc(C(C)(C)O)nn3)cc21 | 100 |  |  | inhibition at 100 µM: 47%; inhibition at 200 µM: 47%; IC50 [2]: 100 µM |
| CC(=O)N1CCc2cc(Br)c(S(=O)(=O)n3cc(-c4ccccc4)nn3)cc21 |  |  |  | inhibition at 100 µM: 25% |
| O=C(O)c1ccc(CN2C(=O)c3ccccc3C2=O)cc1 |  |  |  | Activity w/100 uM [I]: 54%; Activity w/200 uM [I]: 38% |
| CC(=O)NS(=O)(=O)c1cc2c(cc1Br)CCN2C(C)=O |  |  |  | inhibition at 500 µM (at 500 μM): 18% |
| CC(=O)N1CCc2cc(Br)c(S(=O)(=O)/N=C(\N)CC3(O)CCCCC3)cc21 | 60 |  | 35 |  |
| CN/C(CC(C)(C)O)=N\S(=O)(=O)c1cc2c(cc1Br)CCN2C(C)=O | 49 |  | 54.4 |  |
| CO/C(CC(C)(C)O)=N\S(=O)(=O)c1cc2c(cc1Br)CCN2C(C)=O [MM-94] |  |  |  | Activity w/100 uM [I]: 96%; Activity w/200 uM [I]: 35% |
| CC(=O)N1CCc2cc(Cl)c(S(=O)(=O)/N=C(\N)CC(C)(C)O)cc21 | 80 | 19.9 | 32.7 |  |
| CC(=O)N1CCc2cc(Br)c(S(=O)(=O)n3cc(C4(O)CCCCC4)nn3)cc21 |  |  |  | Activity w/100 uM [I]: 53%; Activity w/200 uM [I]: 53% |
| CC(=O)N1CCc2cc(Br)c(S(=O)(=O)/N=C(\N)Cc3ccccc3)cc21 [MM-86] |  |  |  | Activity w/100 uM [I]: 63%; Activity w/200 uM [I]: 46% |
| CC(=O)N1CCc2cc(Cl)c(S(=O)(=O)/N=C(\N)CCO)cc21 | 1 | 78.3 | 99 |  |
| CC(=O)N1CCc2cc(Br)c(S(=O)(=O)/N=C(\N)CC(C)(C)O)cc21 [drawing 95] |  |  |  | Activity w/100 uM [I]: 26%; Activity w/200 uM [I]: 6.4% |
| CC(=O)N1CCc2cc(Br)c(S(=O)(=O)NC(=O)CC(C)(C)O)cc21 | 8.7 |  | 93 | inhibition at 10 µM: 62.7%; IC50 [2]: 8.74 µM |
